# Laboratory results: patent US20250250582A1, “Plant Cells and Plants Modified to Increase Herbicide Resistance and Stress Tolerance and Methods of Using the Same” (The Board of Trustees of the University of Arkansas, priority 2018, published 2025)
# Values joined by “and” are separate entries in the source; they are usually repeats but may differ in a detail not shown here. Equal entries are not always repeated.
# How the values were obtained:
# [1] = system: susceptible E. colona (ECO-S); assay: RNA-sequencing differential gene expression, herbicide-treated vs nontreated ECO-S; details: ECO-S-T vs ECO-S-N, 24 h
# Excerpt: (§1) Pure-line generated seed of each accession were germinated in pots containing potting soil within a temperature/light controlled growth chamber set to a 14-hr day length, 33 C day temperature, and 24 C night time to simulate environmental conditions early in the rice growing season. A single plant was maintained in each of the pots and used for the treatments; two pots were used as individual biological replicates. […] Pots for each of the respective treatments were labeled as either ECO-R/S-T for the treated samples and ECO-R/S-N for the non-treated counterpart. To minimize the effect that the sprayer may play in the application, both plants of the ECO-R and ECO-S were treated at the same time. After approximately 30 minutes, allowing for the plants to dry, the treated and non-treated plants of both accessions were moved back into the growth chamber. Precisely 24-hours after application, the aboveground portion of each of the plants were removed and immediately frozen in liquid nitrogen to cease all biological function. Samples were then transferred to RNAlater™-ICE (Invitrogen, Carlsbad CA, USA) for shipment to the Clemson University Genomics Institute (CUGI), in Clemson, South Carolina.
# (§2) RNA was extracted from the young leaf tissues of both replications for the ECO-R and ECO-S, T and N samples, at Clemson University. Total RNA was extracted with a kit according to the manufactures instructions. The extracted RNA was treated with DNase (Invitrogen, Calsbad, CA, USA) to remove any DNA contamination prior to further processing. The samples were prepared for sequencing by CUGI. For library preparation, the TruSeq Stranded Total RNA kit (Illumina Inc., San Diego, CA, USA) was used according to the instructions provided by the manufacturer to produce a paired-end library for sequencing. Ribosomal RNA was removed using target-specific oligonucleotides paired with rRNA removal beads, removing all cytoplasmic and mitochondrial rRNA that may result in poor quality results. RNA was fragmented and reverse transcribed to cDNA using random primers, followed by a second strand cDNA synthesis. Each fragment is then ligated with an additional ‘A’ and an adapter for sequencing. The PCR enriched product is then used to create the final cDNA library. All samples were sequenced on an Illumina Hiseq 2500 platform housed in the Holdings Cancer Center at the Medical University of South Carolina, Charleston, SC, USA. Samples, regardless of treatments or replication were ran across three lanes to reduce sequencing errors from the equipment. The resulting data were processed by CUGI.
# (§3) A de novo transcriptome was assembled from the treatments described for this experiment as well as several treatments, which included herbicides profiled in ECO-R. The treatments were applied to both ECO-R and ECO-S samples with two replications as described previously. In total, 20 individual plants, from both the ECO-R and ECO-S accessions, as well as T and NT samples, were used for the assembly. The transcriptome was assembled using the Trinity RNA-Seq pipeline (Broad Institute, Cambridge, MA, USA). Raw data were assessed for quality using FastQC (Babraham Institute, Cambridge, UK) and then processed to remove adapter sequences and low quality bases using a sliding window method. The processed data were then rerun using FastQC to ensure high quality reads. Using the TrinityRNASeq 2.2.0 software, the samples were normalized, by replication, using a coverage size of 100 and kmer of 32. The normalized reads were then assembled as transcripts and genes using Trinity with the stranded library set as the default.
# [2] = system: ECO-R compared to ECO-S after herbicide treatment; assay: RNA-sequencing differential gene expression, ECO-R-T compared to ECO-S-T
# Excerpt: as §1, §2, §3
# [3] = system: multiple-resistant E. colona (ECO-R); assay: Herbicide resistance profile of ECO-R; format: in vivo, Echinochloa colona; details: data not shown
# Excerpt: Beginning in 2010, through the 2016 cropping cycle, Echinochloa spp. from throughout the rice producing counties of Arkansas, USA, located along the Mississippi River were sampled for a survey of the current status of herbicide resistance. Seeds were bulk sampled from plants that had matured in rice and soybean production fields, which had survived at least one herbicide application, were collected and sent to the University of Arkansas Altheimer Laboratory in Fayetteville for characterization and evaluation of herbicide resistance to common rice herbicides. […] From this screening program, two populations of E. colona were selected for use in this experiment. […] To establish inbred and homozygous accessions for the experiment, a single plant, verified as resistant/susceptible of ECO-R and ECO-S were grown in isolation to produce seed for further experiments.
# Accession source and population profiling. From 2010 to 2016, the University of Arkansas weed physiology group has been collecting putative herbicide-resistant Echinochloa populations from rice production fields throughout the state of Arkansas. […] Collections took place in the late summer to early fall prior to rice harvest; these accessions were bulk sampled by in-field location and farm, with field histories collected when possible. All of the samples were submitted to the University of Arkansas Altheimer Laboratory for assessment of their resistance profile and characterized according to their species. […] Populations with unique profiles and of interest for further research were then grown in isolation to produce pureline seed. […] Another accession, E. colona susceptible (ECO-S), was also selected and grown in isolation. This accession was selected because of its similar cropping history and geographic location, as well as its high level of susceptibility to the herbicides of interest.
# [4] = system: susceptible E. colona standard; assay: Determination of resistance level (visual injury), susceptible plants; details: 2 X dose, visual 3 wk after treatment
smiles,measurement,setting,value
CCC(=O)Nc1ccc(Cl)c(Cl)c1 [propanil],ABC transporter G family member 5 Fold Change,[1],2.8 fold
same,ABC transporter G family member 42 Fold Change,[1],1.5 fold
same,ACC synthase fold change,[1],−2.7 fold
same,CYP71A1 Fold Change,[1],2.9 fold
same,CYP71A21 Fold Change,[1],5.1 fold
same,CYP71D7 Fold Change,[1],5.9 fold
same,CYP94C1 Fold Change,[1],3.7 fold and 5.4 fold and 5.5 fold
same,CYP716B1 Fold Change,[1],3.0 fold
same,GSTU1 Fold Change,[1],2.5 fold and 2.7 fold
same,GSTU6 Fold Change,[1],2.3 fold and 4.1 fold
same,Heparan-alpha-glucosaminide N-acetyltransferase Fold Change,[1],2.5 fold
same,MSR-1 Fold Change,[1],2.1 fold
same,MYB44 fold change,[1],> 3 fold
same,MYC3 fold change,[1],3.4 fold
same,Probable glutathione S-transferase Fold Change,[1],1.8 fold
same,RGA2 fold change,[1],> 7.5 fold
same,RGA3 fold change,[1],1.7 fold
same,UGT73B4 Fold Change,[1],3.8 fold and 5.7 fold
same,UGT73C1 Fold Change,[1],3.1 fold
same,UGT73C2 Fold Change,[1],3.3 fold
same,UGT74D1 Fold Change,[1],2.2 fold
same,UGT75C1 Fold Change,[1],2.9 fold
same,Uncharacterized acetyltransferase At3g50280 Fold Change,[1],2.5 fold and 3.5 fold
same,multiple ACC oxidase genes fold change,[1],−1.8 to −2.2 fold
same,phosphoenolypyruvate carboxylase fold change,[1],−2.1 to −3.4 fold
same,pyruvate dehydrogenase fold change,[1],−5.6 to −6.2 fold
same,sugar transporter ERD6-like 6 fold change,[1],2.3 fold
same,DNA and RNA polymerase-related transcripts fold change,[1]; repressed by as much as,≤ −8.7 fold
same,ACCase and ACCase 2 fold change,[1]; repressed up to,up to −6.9 fold
same,ABA 8′-hydroxylase 1 transcripts fold change,"[2]; ECO-R-T vs ECO-S-T, 24 h",< −6.5 fold
same,ABA receptor PYL5 fold change,"[2]; ECO-R-T vs ECO-S-T, 24 h",−4.8 fold
same,ABA receptor PYL8 fold change,"[2]; ECO-R-T vs ECO-S-T, 24 h",−3.7 fold
same,ACC synthase fold change,"[2]; ECO-R-T vs ECO-S-T, 24 h",8.6 fold
same,Beta-glucosidase 22 fold change,"[2]; ECO-R-T vs ECO-S-T, 24 h",5.9 fold
same,CYP71A1 Fold Change,"[2]; ECO-R-T vs ECO-S-T, 24 h",3.6 fold
same,CYP72A15 Fold Change,"[2]; ECO-R-T vs ECO-S-T, 24 h",6.6 fold and 11.3 fold
same,DNA-directed RNA polymerase 1 subunit RPA112 III fold change,"[2]; ECO-R-T vs ECO-S-T, 24 h",10.3 fold
same,ERF4 fold change,"[2]; ECO-R-T vs ECO-S-T, 24 h",4.3 fold
same,ERF7 fold change,"[2]; ECO-R-T vs ECO-S-T, 24 h",8 fold
same,ERF11 fold change,"[2]; ECO-R-T vs ECO-S-T, 24 h",3.4 fold
same,GST1 fold change,"[2]; ECO-R-T vs ECO-S-T, 24 h",3.9 fold
same,GST4 fold change,"[2]; ECO-R-T vs ECO-S-T, 24 h",> 5.3 fold
same,GSTU17 fold change,"[2]; ECO-R-T vs ECO-S-T, 24 h",10.9 fold
same,UGT73D1 fold change,"[2]; ECO-R-T vs ECO-S-T, 24 h",7.3 fold
same,UGT88A1 Fold Change,"[2]; ECO-R-T vs ECO-S-T, 24 h",3.2 fold
same,UGT88F3 fold change,"[2]; ECO-R-T vs ECO-S-T, 24 h",5.9 fold
same,ferredoxin-6 fold change,"[2]; ECO-R-T vs ECO-S-T, 24 h",−6.5 fold
same,nitrate reductase fold change,"[2]; ECO-R-T vs ECO-S-T, 24 h",< −6 fold
same,nitrate transporters fold change,"[2]; ECO-R-T vs ECO-S-T, 24 h",< −4 fold
same,polymerase III subunit 2 fold change,"[2]; ECO-R-T vs ECO-S-T, 24 h",10.8 fold
same,trehalose biosynthesis enzymes fold change,"[2]; ECO-R-T vs ECO-S-T, 24 h",< −3 fold
same,Phosphoenolpyruvate carboxylase (PEPc) kinase 1 fold change,[2]; in vivo,> 5 fold
same,level of resistance,[3],> 8 × field dose
same,susceptible plants killed,[4],100%
